According to US20200306283A1, “CANCER TREATMENT AND METASTASIS INHIBITION USING AN ANTI-CANCER STEM CELL AGENT IN COMBINATION WITH A NEU1 SIALIDASE INHIBITOR OR A CYTOKINE INHIBITOR AFTER PRIMARY CANCER TREATMENT” (priority 2016, published 2020):

Columns and labels:
[1] = tested on: enriched circulating tumour cells from a patient with metastatic prostate cancer; experiment: Cell proliferation / cancer stem cell markers (EpCAM, CD44, CD133) in enriched CTCs cultured with cytokine cocktails; assay type: cell-based, human; settings: for EpCAM + CD133+ cell subpopulation / EpCAM + CD133− cell subpopulation / EpCAM − CD133+ cell subpopulation / EpCAM − CD133− cell subpopulation: CD133 PE antibody cocktail; for EpCAM + CD44+ cell subpopulation / EpCAM + CD44− cell subpopulation / EpCAM − CD44+ cell subpopulation / EpCAM − CD44− cell subpopulation: cell culture period 8 days
Experimental: (§1) Cells were fixed in 1% Paraformaldehyde for 15 minutes at room temperature and run on Flowsight using 2 lasers (488 nm at 60 mW and 405 nm at 30 mW). For cell lines, 100,000 events were collected whilst for enriched CTCs all events were collected until the sample finished.
(§2) Flow cytometry data was analysed using IDEAS software. Double events, out of focus events, CD45PercPCy5.5 positive cells (in case of enriched CTCs), dead cells and non-nucleated events were eliminated from the fluorescence analysis of the cell population. FIG. 2 depicts scatterplots of flow cytometry experiments showing the enriched CTCs stained with an antibody containing CD44 after treatment with various cytokines and cytokine cocktails.
In order to determine if selected cytokines influence cell proliferation of circulating tumour cells (CTCs), whole blood was collected from a patient with metastatic prostate cancer. Circulating tumour cells were enriched from whole blood using RosetteSep CTC Enrichment cocktail. Briefly, samples of whole blood were incubated with RosetteSep (anti CD 56 for 20 minutes at room temperature). Phosphate buffered saline containing 2% Fetal Bovine Serum was added to the samples and layered on a Ficoll Paque gradient. After centrifugation, the supernatant which contained CTCs was washed twice with PBS containing 2% FBS. Equal volumes of the cell suspension were seeded into a 24-well ultra-low attachment polystyrene plate. […] FIG. 3 depicts scatterplots of flow cytometry experiments enriched CTCs stained with an antibody containing CD133 after treatment with various cytokines and cytokine cocktails.
FIG. 6 depicts cell proliferation of subpopulations in cultured CTCs after exposure to various cytokines and cytokine cocktails. Cells were stained using an antibody containing CD44 PE.
Cells were stained using an antibody containing CD133 PE.

SW-620 cells = SW-620 cells treated with cytokines with or without Irinotecan, flow cytometry for stem cell markers and apoptosis; assay type: cell-based, human; settings: SW-620, cytokines 24 hours then 2 μM Irinotecan 36 hours; zero in non-treated control cells
Experimental: SW-620 cells, a human colorectal adenocarcinoma cell line, were treated with cytokines alone or in combination including IL-6, TGF-beta, HGF, PGE-2, IL-6+PGE-2 and TGF-beta+HGF for 24 hours and compared to untreated SW-620 cells as control. Some treated and untreated SW-620 cells were then exposed to 2 μM Irinotecan for 36 hours at which point cells were harvested for flow cytometry to assess for stem cell markers and markers of apoptosis. The percentage of CD44+CD133− cells following treatment with various cytokine and cytokine cocktails is depicted in FIG. 10. Compared to non-cytokine treated cells, combinations with IL-6+PGE-2, and TGF-beta+HGF increased the number and percentage of cells that were CD44+CD133− as shown in FIG. 10 (stem cells). FIG. 11 depicts the percentage of CD44+CD133− cells following treatment with various cytokines and Irinotecan. […]
Additionally, the percentage of CD44-CD133+ cells following treatment with various cytokines and cytokines cocktails was determined as depicted in FIG. 16. The percentage of CD44-CD133+ cells following treatment with various cytokines and Irinotecan was measured as depicted in FIG. 17. The percentage of CD44-CD133+ cells following treatment with various cytokine cocktails and Irinotecan was measured as depicted in FIG. 18. […]

HCT-15 cells = experiment: Cell subpopulations (CD44/CD24) in HCT-15 cell line after cytokine exposure, imaging flow cytometry; assay type: cell-based; set-up: unit not given here; settings: HCT-15 cells after exposure to cytokines singly or in pairs
Experimental: Two authenticated colorectal carcinoma cell lines, HCT-15 and SW-620, were used to test the effect of different cytokine and cytokine cocktails, including IL-6, HGF, PGE-2, TGF-beta and MMP-9 alone or in a cocktail, on cell proliferation, EMT and cancer stem cell populations.
In order to evaluate stem cell populations, cells were synchronized by serum starvation for 72 hours before seeding in 24-well ultra low attachment plates at a density of 200,000 cells/well. Cells were then detached using trypsin EDTA and washed twice with PBS (without Calcium or Magnesium). A cell proliferation dye, eFluor 450 was used to label cells. Cells were grown with DMEM with high glucose and 2 mM Gluatmine without FBS in the presence of selected cytokines and or cytokine cocktails over a period of 72 hrs.
Cells that were grown in 5% serum were stained with the following antibody cocktails: CD24FITC, CD44PE and CD24FITC, CD133PE. Cells were also stained with a fixable live/dead efluor dye 506 to exclude dead cells. In parallel, cells were grown in the presence of 5% serum to evaluate CSC markers.
as §1
as §2, with “cocktails. Hoescht 33258 dye was used to stain nuclei in the case of the HCT-15 cell line and enriched CTCs. All experiments were stained with a fixable live/dead dye eFluor 506 to exclude dead cells.” for “cocktails.”
To evaluate which cocktail combinations were most likely involved in cell proliferation of presumed quiescent stem cells or de-differentiated stem cell-like cells, four cytokines, IL-6, HGF, PGE-2 and TGF-beta were added singly or in pairs to HCT-15 cells. Results of combinations that influenced cell proliferation of HCT-15 cells in culture are presented. […] FIG. 4 depicts cell proliferation of subpopulations in the HCT-15 cell line after exposure to various cytokines and cytokine cocktails.

[2] = tested on: Panc1, Panc1-gemr, Panc1-cisr and Panc1-gemr/cisr cells; experiment: Immunocytochemistry of E-, N- and VE-cadherin on Panc1 and chemoresistant Panc1 cells after Tamiflu (FIG. 25); assay type: cell-based, human; settings: Tamiflu 600 μg/mL for 24 hours, Panc1 and drug resistant lines
Experimental: Turning to FIG. 25, oseltamivir phosphate by itself was able to reverse a partial EMT in human PANC1 cancer cell lines, including drug resistant cancer cell lines as evidenced by an upregulation in the epithelial marker E-cadherin and a downregulation in the mesenchymal marker N-cadherin. Expression of e-cadherin, n-cadherin, and Ve-cadherin on the surface of Pancl, Pancl-gemr, Pancl-cisr, and Pancl-gemr/cisr cells were determined following treatment with Tamiflu® 600 μg/mL for 24 hours. Immunocytochemistry was performed on fixed, nonpermeabilized cells. The indicated primary antibodies for Ecadherin, N-cadherin, and Ve-cadherin were used, followed by alexa Fluor® 594 (life Technologies inc, Burlington, ON, Canada) secondary antibody for the primary antibody against n-cadherin and Dylight™ 488 (santa cruz Biotechnology, inc, santa cruz, ca, Usa) secondary antibody for primary antibodies against e-cadherin and Ve-cadherin. The background controls had no primary antibody during the staining procedure. The stained cells were visualized after 24 hours using a Zeiss M2 Imager fluorescence microscope (Carl Zeiss ag, Oberkochen, germany) at 400× magnification. Images are representative of at least four fields of view in three separate trials. Quantitative analysis was done by assessing the density of cell staining corrected for background in each panel using corel Photo Paint 8.0 software (Corel Corporation, Ottawa, ON, Canada). each bar in the figures represents the mean (±standard error of the mean) corrected density of culture cell staining for equal cell density (5×10^5 cells) within the respective images. P-values represent significant differences at 95% confidence using Dunnett's multiple comparison test compared with untreated control group. (Abbreviations: 1° ab=primary antibody; Pancl-gemr=Pancl cells with established chemoresistance to 0.01 μM gemcitabine; Pancl-gemr/cisr=Pancl cells with established chemoresistance to a combination of 0.01 μM gemcitabine and 80 μM cisplatin; cad=cadherin; Bkg=background; se=standard error.)

[3] = tested on: enriched circulating tumour cells from a patient with colorectal cancer; experiment: Cultured enriched CTCs from a colorectal cancer patient treated with IL-6, IL-8 or PDGFBB (EpCAM, CD133, Lgr5 flow cytometry); assay type: cell-based, human; settings: cultured CTCs from colorectal cancer patient
Description: A blood sample was collected from a patient with colorectal cancer six days after surgery. Blood samples were enriched for CTCs using RosetteSep CD 56 kit according to standard protocol. Prior to cell culture, cells were stained with the following antibody cocktail: EpCAM A488, CD133PE, CD 45 PerCP Cy5.5, and Lgr5-PE-Vio770. Cells were either cultured in low attachment well plates without cytokines (control cells) or with three different cytokines (IL-6, IL-8 or PDGFBB).
Flow cytometry data was analysed using IDEAS software. Double events, out of focus events, CD45PercPCy5.5 positive cells, dead cells and non-nucleated events were eliminated from the fluorescence analysis of the cell population. Hoescht 33258 dye was used to stain nuclei of enriched CTCs. All experiments were stained with a fixable live/dead dye eFluor 506 to exclude dead cells.

[4] = listed as Oseltamivir Phosphate

## CCCCC[C@H](O)/C=C/[C@H]1[C@H](O)CC(=O)[C@@H]1C/C=C\CCCC(=O)O [PGE-2, prostaglandin E2, reference compound]
[1]; 8 days culture, no serum, CD44PE antibody cocktail
  EpCAM-CD44+ cell sub-population: 4.23 % gated
[1]
  EpCAM + CD133+ cell subpopulation: 10.4 percentages of gated subpopulations
  EpCAM + CD133− cell subpopulation: 0 percentages of gated subpopulations
  EpCAM − CD133+ cell subpopulation: 86.7 percentages of gated subpopulations
  EpCAM − CD133− cell subpopulation: 2.61 percentages of gated subpopulations
[1]; CD44PE antibody cocktail
  EpCAM + CD44+ cell subpopulation: 27.2 percentage of gated cells
  EpCAM + CD44− cell subpopulation: 1.75 percentage of gated cells
  EpCAM − CD44+ cell subpopulation: 4.23 percentage of gated cells
  EpCAM − CD44− cell subpopulation: 65.5 percentage of gated cells
SW-620 cells
  percentage of CD44+CD133− stem cells: enriched
HCT-15 cells
  CD24 + CD44− cell subpopulation: 58.7
  CD44 + CD24+ cell subpopulation: 7.3
  CD44 + CD24− cell subpopulation: 0.61
  CD44 − CD24− cell subpopulation: 32.4

## HGF: Hepatocyte Growth Factor added to cancer cells in culture
[1]
  EpCAM + CD133+ cell subpopulation: 17.2 percentages of gated subpopulations
  EpCAM + CD133− cell subpopulation: 0.2 percentages of gated subpopulations
  EpCAM − CD133+ cell subpopulation: 80.8 percentages of gated subpopulations
  EpCAM − CD133− cell subpopulation: 1.58 percentages of gated subpopulations
[1]; CD44PE antibody cocktail
  EpCAM + CD44+ cell subpopulation: 16.8 percentage of gated cells
  EpCAM + CD44− cell subpopulation: 4.89 percentage of gated cells
  EpCAM − CD44+ cell subpopulation: 2.12 percentage of gated cells
  EpCAM − CD44− cell subpopulation: 74.9 percentage of gated cells
HCT-15 cells
  CD24 + CD44− cell subpopulation: 58.6
  CD44 + CD24+ cell subpopulation: 3.29
  CD44 + CD24− cell subpopulation: 0.31
  CD44 − CD24− cell subpopulation: 35.9

## CCOC(=O)C1=C[C@@H](OC(CC)CC)[C@H](NC(C)=O)[C@@H](N)C1 [oseltamivir phosphate]
[2]
  E-cadherin expression on cell surface: upregulation
  N-cadherin expression on cell surface: downregulation
  VE-cadherin expression on cell surface: significant downregulation
[2]; [4]
  E-cadherin expression on cell surface: statistically significant upregulation in the epithelial marker E-Cadherin in all 4 cell lines tested with the exception of the double resistant pancreatic cell line
  N-cadherin expression on cell surface: Downregulation of N cadherin was seen in all cell lines tested

## Il-8
[3]
  EpCAM + CD133+ cell subpopulation: 0.13 percentages of gated subpopulations
  EpCAM + CD133− cell subpopulation: 2.51 percentages of gated subpopulations
  EpCAM − CD133+ cell subpopulation: 0.09 percentages of gated subpopulations
  EpCAM − CD133− cell subpopulation: 90.8 percentages of gated subpopulations
